Measurements reported in ChEMBL document CHEMBL1145094, “A novel and selective 5-HT2 receptor agonist with ocular hypotensive activity: (S)-(+)-1-(2-aminopropyl)-8,9-dihydropyrano[3,2-e]indole” (J Med Chem, 2003).

Assays:
[1] = target: 5-hydroxytryptamine receptor 2B (Homo sapiens, UniProt P41595); experiment: Inhibitory constant against cloned human 5-hydroxytryptamine 2B receptor using with [125I]- DOI radioligand
[2] = target: T1, 5-hydroxytryptamine receptor 2A (Homo sapiens, UniProt P28223); experiment: Inhibitory constant against cloned human 5-hydroxytryptamine 2A receptor using with [125I]- DOI radioligand
[3] = target: 5-hydroxytryptamine receptor 2A (Rattus norvegicus) (UniProt P14842); experiment: In vitro efficacy against rat 5-hydroxytryptamine 2A receptor determined by using PI assay (Emax)
Monkey [4] = experiment: Tested for the ability to lower IOP in conscious cynomolgus monkeys with laser-induced ocular hypertension after 1 hr postdose of the compound; type: functional, Cercopithecidae, Eye
[5] = target: 5-hydroxytryptamine receptor 2A (Rattus norvegicus) (UniProt P14842); experiment: In vitro efficacy against rat 5-hydroxytryptamine 2A receptor was determined by using CA+ assay (Emax)
[6] = target: T2, 5-hydroxytryptamine receptor 2A (Rattus norvegicus, UniProt P14842); experiment: In vitro inhibition of [125I]DOI binding to 5-hydroxytryptamine 2A receptor in rat cerebral cortex; type: tissue-based
[7] = target: T2, 5-hydroxytryptamine receptor 2A; experiment: In vitro inhibitory constant against [125I]DOI binding to 5-hydroxytryptamine 2A receptor in rat cerebral cortex; type: tissue-based
[8] = target: T3, 5-hydroxytryptamine receptor 2C (Homo sapiens, UniProt P28335); experiment: Inhibitory constant against cloned human 5-hydroxytryptamine 2C receptor using with [125I]- DOI radioligand
T3 sequence (P28335 whole entry): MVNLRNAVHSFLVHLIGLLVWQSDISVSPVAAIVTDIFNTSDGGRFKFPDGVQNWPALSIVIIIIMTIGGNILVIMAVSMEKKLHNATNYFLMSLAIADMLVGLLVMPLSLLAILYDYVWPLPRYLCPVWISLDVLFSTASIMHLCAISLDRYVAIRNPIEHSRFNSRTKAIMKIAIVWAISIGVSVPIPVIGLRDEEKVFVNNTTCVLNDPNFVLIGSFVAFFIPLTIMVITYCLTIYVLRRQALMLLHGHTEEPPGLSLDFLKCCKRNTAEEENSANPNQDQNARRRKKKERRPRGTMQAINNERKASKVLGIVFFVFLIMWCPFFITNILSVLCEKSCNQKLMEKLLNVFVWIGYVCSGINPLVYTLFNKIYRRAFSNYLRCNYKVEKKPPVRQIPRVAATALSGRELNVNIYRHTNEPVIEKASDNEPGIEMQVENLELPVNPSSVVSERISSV

[9] = target: T4, 5-hydroxytryptamine receptor 1A (Homo sapiens, UniProt P08908); experiment: In vitro inhibitory concentration required against [3H]8-OH-DPAT binding to cloned human 5-hydroxytryptamine 1A receptor
T4 sequence (P08908 whole entry): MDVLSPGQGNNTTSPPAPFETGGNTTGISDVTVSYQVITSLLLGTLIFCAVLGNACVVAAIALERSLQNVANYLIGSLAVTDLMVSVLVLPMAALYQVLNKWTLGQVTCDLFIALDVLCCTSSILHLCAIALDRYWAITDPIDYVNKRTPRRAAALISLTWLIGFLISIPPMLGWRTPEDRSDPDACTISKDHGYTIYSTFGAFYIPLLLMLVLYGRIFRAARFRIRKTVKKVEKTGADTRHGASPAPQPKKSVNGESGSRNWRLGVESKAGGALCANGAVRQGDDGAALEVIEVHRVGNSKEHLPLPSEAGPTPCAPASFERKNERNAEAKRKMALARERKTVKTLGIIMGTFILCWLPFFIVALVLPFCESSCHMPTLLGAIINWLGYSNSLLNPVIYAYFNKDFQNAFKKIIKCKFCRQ

Monkey [10] = experiment: Tested for the ability to lower IOP in conscious cynomolgus monkeys with laser-induced ocular hypertension after 3h postdose of the compound; type: functional, Cercopithecidae, Eye
[11] = target: T2, 5-hydroxytryptamine receptor 2A; experiment: In vitro relative agonist activity against 5-hydroxytryptamine 2A using PI assay in rat vascular smooth muscle cells; type: functional
[12] = target: T4, 5-hydroxytryptamine receptor 1A; experiment: Tested for functional response on CHO cells expressing cloned human 5-hydroxytryptamine 1A receptor; type: cell-based
Monkey [13] = experiment: Tested for the ability to lower IOP in conscious cynomolgus monkeys with laser-induced ocular hypertension after 6 hr postdose of the compound; type: functional, Cercopithecidae, Eye
[14] = target: T5, Alpha-1A adrenergic receptor (Rattus norvegicus, UniProt P43140); experiment: Inhibitory constant against Alpha-1A adrenergic receptor using [3H]-7-MeO prazosin radioligand
T5 sequence (P43140 whole entry): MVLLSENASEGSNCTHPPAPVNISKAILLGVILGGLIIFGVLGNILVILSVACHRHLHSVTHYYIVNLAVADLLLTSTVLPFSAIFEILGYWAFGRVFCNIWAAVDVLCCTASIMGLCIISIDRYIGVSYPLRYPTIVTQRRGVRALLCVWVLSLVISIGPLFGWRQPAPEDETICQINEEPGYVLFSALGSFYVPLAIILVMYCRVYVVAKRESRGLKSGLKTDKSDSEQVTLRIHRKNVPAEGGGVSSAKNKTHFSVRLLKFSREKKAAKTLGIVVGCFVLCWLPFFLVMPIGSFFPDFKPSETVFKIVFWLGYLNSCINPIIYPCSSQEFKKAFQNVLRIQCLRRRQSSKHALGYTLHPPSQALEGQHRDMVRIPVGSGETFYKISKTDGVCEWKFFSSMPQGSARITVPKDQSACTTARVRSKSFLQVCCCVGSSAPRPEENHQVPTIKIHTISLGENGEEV

[15] = target: Alpha-2A adrenergic receptor (Homo sapiens, UniProt P08913); experiment: (§1) Inhibitory concentration required against Alpha-2A adrenergic receptor using [3H]clonidine radioligand
[16] = target: 5-hydroxytryptamine receptor 3A (Homo sapiens, UniProt P46098); experiment: Inhibitory constant against 5-hydroxytryptamine 3 receptor using [3H]GR-65630 radioligand
[17] = target: T5, Alpha-1A adrenergic receptor; experiment: Inhibitory constant against Alpha-1B adrenergic receptor using [3H]-7-MeO prazosin radioligand
[18] = target: Sodium-dependent serotonin transporter (Homo sapiens, UniProt P31645); experiment: Inhibitory constant against human serotonin transporter using [3H]N-Me-citalopram radioligand
[19] = target: 5-hydroxytryptamine receptor 4 (Homo sapiens, UniProt Q13639); experiment: Inhibitory constant against 5-hydroxytryptamine 4 receptor using [3H]GR-113808 radioligand
[20] = target: 5-hydroxytryptamine receptor 7 (Homo sapiens, UniProt P34969); experiment: Inhibitory constant against human 5-hydroxytryptamine 7 receptor using [3H]LSD radioligand
[21] = target: 5-hydroxytryptamine receptor 6 (Homo sapiens, UniProt P50406); experiment: Inhibitory constant against human 5-hydroxytryptamine 6 receptor using [3H]LSD radioligand
[22] = target: Sodium-dependent noradrenaline transporter (Homo sapiens, UniProt P23975); experiment: Inhibitory constant against norepinephrine transporter receptor using [3H]radioligand
[23] = target: 5-hydroxytryptamine receptor 1B (Homo sapiens, UniProt P28222); experiment: Inhibitory constant against 5-hydroxytryptamine 1B receptor using with [125I]- cyanopindolol radioligand
[24] = target: 5-hydroxytryptamine receptor 5A (Homo sapiens, UniProt P47898); experiment: Inhibitory constant against human 5-hydroxytryptamine 5A receptor using [3H]LSD radioligand
[25] = target: T6, Alpha-2C adrenergic receptor (Homo sapiens, UniProt P18825); experiment: Inhibitory concentration required against Alpha-2C adrenergic receptor using [3H]clonidine radioligand
[26] = target: Alpha-2B adrenergic receptor (Rattus norvegicus, UniProt P19328); experiment: Inhibitory constant against Alpha-2B adrenergic receptor using [3H]MK-912 radioligand
[27] = target: T1, 5-hydroxytryptamine receptor 2A; experiment: Inhibitory constant determined against cloned human 5-hydroxytryptamine 2A receptor using with [125I]- DOI radioligand
Target sequence in this assay (P28223 whole entry): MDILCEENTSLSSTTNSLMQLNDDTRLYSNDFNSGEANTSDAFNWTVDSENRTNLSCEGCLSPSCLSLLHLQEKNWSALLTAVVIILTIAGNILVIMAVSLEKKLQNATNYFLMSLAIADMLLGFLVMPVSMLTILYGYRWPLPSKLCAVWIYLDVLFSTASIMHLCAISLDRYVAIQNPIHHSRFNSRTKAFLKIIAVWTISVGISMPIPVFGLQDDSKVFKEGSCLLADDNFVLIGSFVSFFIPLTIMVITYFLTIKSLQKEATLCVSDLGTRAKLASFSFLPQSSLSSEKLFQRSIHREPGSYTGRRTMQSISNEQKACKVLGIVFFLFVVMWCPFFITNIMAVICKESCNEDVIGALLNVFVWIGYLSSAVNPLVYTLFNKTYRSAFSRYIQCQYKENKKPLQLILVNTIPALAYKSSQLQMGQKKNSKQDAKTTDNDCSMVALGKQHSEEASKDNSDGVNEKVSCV

[28] = target: 5-hydroxytryptamine receptor 1D (Homo sapiens, UniProt P28221); experiment: Inhibitory constant against human 5-hydroxytryptamine 1D receptor using [3H]5-CT radioligand
[29] = target: Alpha-1B adrenergic receptor (Rattus norvegicus, UniProt P15823); experiment: Inhibitory constant against Alpha-1B adrenergic radioligand
[30] = target: T6, Alpha-2C adrenergic receptor; experiment: as §1
[31] = target: T5, Alpha-1A adrenergic receptor; experiment: Inhibitory constant against alpha-1A receptor using [3H]-7-MeO prazosin radioligand

Sequence of 5-hydroxytryptamine receptor 2B (P41595 whole entry): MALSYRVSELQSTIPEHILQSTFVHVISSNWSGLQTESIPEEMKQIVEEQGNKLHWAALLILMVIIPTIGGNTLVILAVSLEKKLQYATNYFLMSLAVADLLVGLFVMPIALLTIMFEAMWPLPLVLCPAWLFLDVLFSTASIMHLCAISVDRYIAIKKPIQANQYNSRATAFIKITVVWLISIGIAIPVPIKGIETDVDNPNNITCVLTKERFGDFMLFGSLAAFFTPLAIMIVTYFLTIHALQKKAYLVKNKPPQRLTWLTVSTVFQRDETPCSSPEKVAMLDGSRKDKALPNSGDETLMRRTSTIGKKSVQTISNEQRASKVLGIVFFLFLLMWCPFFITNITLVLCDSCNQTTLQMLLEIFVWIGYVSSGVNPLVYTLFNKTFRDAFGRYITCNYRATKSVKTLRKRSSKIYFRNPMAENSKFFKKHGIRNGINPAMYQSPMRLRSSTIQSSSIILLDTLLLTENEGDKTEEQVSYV
Sequence of 5-hydroxytryptamine receptor 2A (Rattus norvegicus) (P14842 whole entry): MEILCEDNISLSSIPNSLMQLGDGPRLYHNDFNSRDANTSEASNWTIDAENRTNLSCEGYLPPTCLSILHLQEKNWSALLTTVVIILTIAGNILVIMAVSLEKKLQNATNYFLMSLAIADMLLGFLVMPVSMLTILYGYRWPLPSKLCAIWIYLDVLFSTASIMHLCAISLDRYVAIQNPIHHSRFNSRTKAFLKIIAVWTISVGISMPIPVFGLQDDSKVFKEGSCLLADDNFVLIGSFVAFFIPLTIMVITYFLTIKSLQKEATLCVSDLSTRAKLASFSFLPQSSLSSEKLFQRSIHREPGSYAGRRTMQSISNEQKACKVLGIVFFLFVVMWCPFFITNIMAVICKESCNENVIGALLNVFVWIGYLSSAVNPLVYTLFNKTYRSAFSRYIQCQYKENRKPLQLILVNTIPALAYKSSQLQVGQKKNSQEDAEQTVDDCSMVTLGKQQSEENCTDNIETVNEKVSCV
T2 sequence (P14842 whole entry): as above
Sequence of Sodium-dependent noradrenaline transporter (P23975 whole entry): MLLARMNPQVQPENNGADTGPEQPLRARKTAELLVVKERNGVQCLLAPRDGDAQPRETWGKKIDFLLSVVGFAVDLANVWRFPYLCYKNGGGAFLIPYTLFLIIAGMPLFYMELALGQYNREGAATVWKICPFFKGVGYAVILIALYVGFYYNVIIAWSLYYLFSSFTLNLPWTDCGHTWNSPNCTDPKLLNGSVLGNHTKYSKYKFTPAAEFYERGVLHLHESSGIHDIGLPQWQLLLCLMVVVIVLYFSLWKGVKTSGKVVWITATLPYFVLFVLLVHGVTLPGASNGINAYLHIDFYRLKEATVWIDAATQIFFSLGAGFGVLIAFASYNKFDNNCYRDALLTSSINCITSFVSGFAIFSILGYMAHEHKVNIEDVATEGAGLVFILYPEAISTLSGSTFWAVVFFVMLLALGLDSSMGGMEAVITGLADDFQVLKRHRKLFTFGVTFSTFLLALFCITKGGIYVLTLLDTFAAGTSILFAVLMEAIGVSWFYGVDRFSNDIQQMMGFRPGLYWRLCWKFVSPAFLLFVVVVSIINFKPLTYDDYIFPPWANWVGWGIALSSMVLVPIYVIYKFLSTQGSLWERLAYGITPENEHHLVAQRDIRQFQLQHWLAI
Sequence of Sodium-dependent serotonin transporter (P31645 whole entry): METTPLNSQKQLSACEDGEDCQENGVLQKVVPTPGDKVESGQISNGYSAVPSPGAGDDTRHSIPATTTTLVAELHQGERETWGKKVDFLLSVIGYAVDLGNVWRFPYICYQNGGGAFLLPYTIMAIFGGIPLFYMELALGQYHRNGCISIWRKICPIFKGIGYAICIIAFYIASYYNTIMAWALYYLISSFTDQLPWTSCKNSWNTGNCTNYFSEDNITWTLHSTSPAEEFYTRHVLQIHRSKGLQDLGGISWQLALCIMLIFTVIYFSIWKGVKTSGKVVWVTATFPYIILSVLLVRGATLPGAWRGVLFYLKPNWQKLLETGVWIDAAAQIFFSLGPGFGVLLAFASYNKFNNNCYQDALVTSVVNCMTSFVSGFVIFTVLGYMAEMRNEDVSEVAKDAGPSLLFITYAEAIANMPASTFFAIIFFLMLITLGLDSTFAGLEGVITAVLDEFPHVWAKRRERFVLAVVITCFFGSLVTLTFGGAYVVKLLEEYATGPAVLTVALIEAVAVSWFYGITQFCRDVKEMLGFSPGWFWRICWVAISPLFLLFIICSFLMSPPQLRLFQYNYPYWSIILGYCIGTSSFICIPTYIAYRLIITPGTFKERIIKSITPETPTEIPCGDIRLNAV
Sequence of 5-hydroxytryptamine receptor 5A (P47898 whole entry, looked up): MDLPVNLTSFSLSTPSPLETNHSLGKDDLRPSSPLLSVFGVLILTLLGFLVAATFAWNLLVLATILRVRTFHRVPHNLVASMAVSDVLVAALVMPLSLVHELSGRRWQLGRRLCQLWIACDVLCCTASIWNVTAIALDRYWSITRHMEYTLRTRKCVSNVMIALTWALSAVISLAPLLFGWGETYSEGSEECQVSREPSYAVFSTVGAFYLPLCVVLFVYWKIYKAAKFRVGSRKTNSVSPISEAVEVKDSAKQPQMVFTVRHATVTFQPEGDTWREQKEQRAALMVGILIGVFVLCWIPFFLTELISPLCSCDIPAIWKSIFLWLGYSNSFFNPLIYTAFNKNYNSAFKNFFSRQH
Sequence of Alpha-2B adrenergic receptor (P19328 whole entry): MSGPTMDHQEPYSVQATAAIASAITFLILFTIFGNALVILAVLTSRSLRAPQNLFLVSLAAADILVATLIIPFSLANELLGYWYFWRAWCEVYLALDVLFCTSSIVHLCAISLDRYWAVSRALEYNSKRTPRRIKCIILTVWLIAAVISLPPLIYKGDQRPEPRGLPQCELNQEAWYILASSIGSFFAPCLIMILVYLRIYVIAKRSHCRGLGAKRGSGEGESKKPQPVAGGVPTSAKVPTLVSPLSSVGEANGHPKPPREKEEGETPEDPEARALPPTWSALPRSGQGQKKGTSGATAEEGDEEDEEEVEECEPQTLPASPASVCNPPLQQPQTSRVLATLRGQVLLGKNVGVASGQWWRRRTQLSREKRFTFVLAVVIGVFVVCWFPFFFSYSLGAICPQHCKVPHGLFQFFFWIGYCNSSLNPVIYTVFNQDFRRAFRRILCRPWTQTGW
Sequence of 5-hydroxytryptamine receptor 3A (P46098 whole entry): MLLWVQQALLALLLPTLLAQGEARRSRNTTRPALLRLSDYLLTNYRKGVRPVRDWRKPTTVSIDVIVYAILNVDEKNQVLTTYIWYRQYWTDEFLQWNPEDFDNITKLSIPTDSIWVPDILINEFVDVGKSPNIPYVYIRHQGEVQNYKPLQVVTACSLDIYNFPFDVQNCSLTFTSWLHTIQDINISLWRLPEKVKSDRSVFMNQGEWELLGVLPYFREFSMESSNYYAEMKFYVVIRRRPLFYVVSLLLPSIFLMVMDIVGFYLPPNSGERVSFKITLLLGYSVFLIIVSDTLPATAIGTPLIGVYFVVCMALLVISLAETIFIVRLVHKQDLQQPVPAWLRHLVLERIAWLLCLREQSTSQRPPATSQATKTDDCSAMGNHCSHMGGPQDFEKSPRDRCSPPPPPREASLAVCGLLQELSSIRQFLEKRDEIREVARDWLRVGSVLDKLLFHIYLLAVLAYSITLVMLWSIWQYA
Sequence of 5-hydroxytryptamine receptor 6 (P50406 whole entry): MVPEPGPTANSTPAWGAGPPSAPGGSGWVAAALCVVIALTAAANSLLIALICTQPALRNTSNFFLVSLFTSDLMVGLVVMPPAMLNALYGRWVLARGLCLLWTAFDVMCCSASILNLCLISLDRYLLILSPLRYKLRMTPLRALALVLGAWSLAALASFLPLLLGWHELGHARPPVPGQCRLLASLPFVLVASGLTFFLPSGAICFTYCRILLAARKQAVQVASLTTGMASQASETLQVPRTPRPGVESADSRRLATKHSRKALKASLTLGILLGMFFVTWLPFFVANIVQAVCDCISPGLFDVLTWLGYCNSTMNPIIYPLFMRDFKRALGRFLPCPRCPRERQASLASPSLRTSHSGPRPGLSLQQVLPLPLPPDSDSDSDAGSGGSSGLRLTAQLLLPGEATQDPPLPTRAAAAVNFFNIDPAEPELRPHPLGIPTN
Sequence of 5-hydroxytryptamine receptor 4 (Q13639 whole entry): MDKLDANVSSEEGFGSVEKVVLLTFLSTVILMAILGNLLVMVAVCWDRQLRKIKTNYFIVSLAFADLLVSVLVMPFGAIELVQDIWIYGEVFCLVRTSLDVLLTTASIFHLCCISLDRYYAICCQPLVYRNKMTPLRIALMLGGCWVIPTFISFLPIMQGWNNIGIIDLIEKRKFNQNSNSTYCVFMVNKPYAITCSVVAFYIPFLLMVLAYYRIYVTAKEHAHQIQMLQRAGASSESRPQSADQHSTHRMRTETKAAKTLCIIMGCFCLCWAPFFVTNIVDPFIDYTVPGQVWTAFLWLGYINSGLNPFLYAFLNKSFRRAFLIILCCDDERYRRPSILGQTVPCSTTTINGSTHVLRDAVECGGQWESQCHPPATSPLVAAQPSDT

SMILES	Ki [1]	Ki [2]	Efficacy [3]	Reduction (Monkey [4])	Efficacy [5]	IC50 [6]	Ki [7]	Ki [8]	IC50 [9]	Reduction (Monkey [10])	EC50 [11]	EC50 [12]	Reduction (Monkey [13])	Ki [27]	further results
CC(N)Cc1cn(C)c2ccc3c(c12)CCCO3 (stereo not given)	11 nM	28 nM	102%	<18.8%	79%	0.5 nM	0.2 nM	2.7 nM	12200 nM	<28%	134 nM	> 10000 nM	<26.1%	–	–
CC(N)Cc1c[nH]c2ccc3c(c12)CCCO3 (stereo not given)	13 nM	3.6 nM	81%	<16%	97%	0.7 nM	0.3 nM	5.5 nM	10900 nM	<28%	–	> 10000 nM	<22.9%	–	Ki [14]: > 30000 nM; IC50 [15]: > 10000 nM; Ki [16]: > 10000 nM; Ki [17]: > 30000 nM; Ki [18]: > 10000 nM; Ki [19]: 1800 nM; Ki [20]: 24000 nM; Ki [21]: 400 nM; Ki [22]: > 30000 nM; Ki [23]: > 10000 nM; Ki [24]: 1900 nM; IC50 [25]: > 30000 nM; Ki [26]: 10000 nM
COc1cc(C[C@@H](C)N)c(OC)cc1I	18 nM	–	–	11%	33%	0.4 nM	0.1 nM	4 nM	–	25.3%	27.7 nM	–	34.4%	–	–
CN(C)CCc1c[nH]c2ccc3c(c12)CCCO3	26 nM	–	63%	–	47%	–	–	16 nM	562 nM	–	–	–	–	17 nM	–
C[C@@H](N)Cc1c[nH]c2ccc3c(c12)CCCO3	19 nM	–	83%	<12.7%	71%	1.5 nM	0.5 nM	20 nM	8650 nM	<24.8%	292 nM	–	<32.5%	3.6 nM	–
COc1ccc2[nH]cc(CC(C)N)c2c1 (stereo not given)	7.8 nM	4.6 nM	107%	21.6%	96%	4.4 nM	1.6 nM	8.3 nM	86.4 nM	35.2%	285 nM	564 nM	33.4%	–	–
C[C@H](N)Cc1c[nH]c2ccc3c(c12)CCCO3	5.3 nM	2 nM	90%	<18.1%	103%	0.5 nM	0.2 nM	3.4 nM	> 10000 nM	<33.2%	80.1 nM	–	<37%	–	Ki [28]: > 10000 nM; Ki [29]: > 10000 nM; IC50 [15]: 19000 nM; IC50 [30]: 14000 nM; Ki [16]: > 10000 nM; Ki [18]: > 10000 nM; Ki [19]: 1700 nM; Ki [21]: 2200 nM; Ki [22]: > 10000 nM; Ki [23]: 3300 nM; Ki [24]: > 10000 nM; Ki [26]: > 10000 nM; Ki [31]: > 10000 nM
Cn1cc(CCN)c2c3c(ccc21)OCCC3	–	–	96%	–	70%	2.8 nM	1.1 nM	–	8410 nM	–	213 nM	–	–	8.2 nM	–
CC(N)Cc1c[nH]c2ccc(O)cc12 (stereo not given)	13 nM	12 nM	98%	–	99%	–	–	–	19.6 nM	–	–	378 nM	–	–	–
NCCc1c[nH]c2ccc3c(c12)CCCO3	14 nM	–	99%	–	99%	1.8 nM	0.6 nM	6.3 nM	287 nM	–	181 nM	–	–	4.9 nM	–
